Like-named read-outs stand apart in the source and are kept apart here.
What was measured:
[1] = Cytotoxicity in SH-SY5Y cell line (MTT); assay type: cell-based; conditions: human; SH-SY5Y, 10, 30 and 100 μM, 24 h, MTT; read-out: CC50
Protocol: SH-SY5Y human neuroblastoma cells were seeded in 96-well clear multi-well plates (6 × 10^4 cells/well). Cells were treated with increasing concentrations of compounds (10, 30 and 100 μM) for 24 h. Thereafter, viability was assessed by the MTT method. Cytotoxic concentration to observe 50% mortality (CC50) values for compounds were interpolated from dose–response curves represented as percentage of cell death vs. concentration of compound, fitted by non-linear regression and data interpolated to value 50.
(§1) The tetrazolium ring of MTT can be cleaved by active dehydrogenases to produce a formazan precipitate. At the end of the experiments, MTT (SigmaAldrich, M2003) stock solution was added to each well to achieve a final concentration of 0.5 mg/mL. Cells were incubated for 2 h. Thereafter, culture media was removed, and DMSO was added to each well to dissolve the formazan precipitate. Finally, absorbance was measured in a microplate reader (SPECTROstar nano, BMG Labtech) at 570 nm. Absorbance obtained in basal conditions was considered as 100% cell viability.
In order to evaluate the potential pharmacological profile of new compounds, we first tested the potential neurotoxicity in the neuroblastoma SHSY5Y cell line. Toxicity was evaluated at increasing concentrations (10, 30 and 100 μM), and toxicity was measured as MTT reduction capability. CC50 values were calculated by non-linear regression of curves % survival vs. concentration (Supplementary Materials Figure S2). CGP37157 and previously studied racemic derivatives rac-3a and (rac,R)-3b were included as reference compounds. As previously described, LA is a non-neurotoxic compound at the concentrations texted.

[2] = system: SH-SY5Y neuroblastoma cells; test: Neuroprotection against rotenone/oligomycin A oxidative stress in SH-SY5Y cells (MTT); assay type: cell-based, human; conditions: compound 1 μM 24 h, then compound + R/O (30/10 μM) 24 h; for % Survival: basal = 100, R/O alone 53.4
Protocol: Human neuroblastoma SH-SY5Y cells were plated in 96-well clear multi-well plates (6 × 10^4 cells/well). The potential neuroprotective activity of compounds against OS was evaluated using the rotenone (30 μM) (SigmaAldrich, R8875) and oligomycin A (10 μM) (SigmaAldrich, 75351) (R/O) toxic mixture. Neuroprotection activity against Tau hyperphosphorylation was evaluated by using the okadaic acid (20 nM) model. Cells were pre-incubated with each compound (1 µM) for 24 h, and then treatments were removed and cells were incubated with compounds (1 µM) in the presence the corresponding toxic for additional 24 h. At the end of the experiments, viability was determined by the MTT method. Data were normalized from cell death induced by the toxic stimuli (considered as 100% cell death). Then, the protection percentages were calculated by subtracting from the death induced by toxic stimuli, the death in the presence of the compound.
as §1
Thus, we selected a pre-incubation protocol to evaluate their potential neuroprotective capacity based on the NRF2-induction activity and direct antioxidant effect. Compound pre-incubation would induce the expression of antioxidant enzymes regulated by the phase II antioxidant response, thus promoting cells’ survival. The co-incubation period would also evaluate their capacity to trap free radicals produced by intoxicated mitochondria. SH-SY5Y neuroblastoma cells were treated with compounds (1 µM) during 24 h, and then cells were co-incubated with the corresponding compound at the same concentration and the R/O combination (30/10 µM) for additional 24 h. Melatonin, a well-known antioxidant natural neurohormone, was included as a positive control (1 µM). Previously reported racemic derivatives (rac-3a and (rac,R)-3b) and their precursors ((±)-6, R-6 and S-6) were included for comparative purposes at the same concentration.

NRF2 [3] = conditions: AREc32 cells, cited from earlier work; for CD (concentration required to double the specific luciferase activity): 24 h, Table S1, ref [3] of the supplement; for CD (concentration to double luciferase expression): previous results
[4] = set-up: method as in PMID 31693218; conditions: cited from earlier work; for DPPH Scavenging at 100 µM, %: compound 100 µM; for DPPH Scavenging at 1mM, %: compound 1 mM
primary glial cultures = system: primary glial cultures; set-up: method as in PMID 31693218; conditions: primary glial cultures stimulated by LPS; cited from earlier work
NRF2 [5] = test: NRF2 induction, luciferase expression in AREc32 cell line; assay type: cell-based; conditions: AREc32 cells, 0.3, 3, 10 and 30 μM (LA: 0.1–0.6 mM), 24 h; mean ± SEM
Protocol: AREc32 cell line was kindly shared by Professor Roland Wolf (University of Dundee, UK). AREc32 cells were maintained in DMEM/glutamax/high glucose (Gibco, 61965-06, Madrid, Spain), supplemented with 1% penicillin–streptomycin (10,000 units) (SigmaAldrich, P4333, Madrid, Spain), geneticin (0.8 mg/mL) (Gibco, 11811-031) and 10% FBS (Gibco, 10270106), at 37 °C in a 5% CO2 air atmosphere. Cells were used from passage 4 to 18, and mycoplasma contamination was tested every 4 weeks. AREc32 cells were seeded in 96-well white plates (2 × 10^4 cells/well) for 24 h. Thereafter, cells were treated with each compound (0.3, 3, 10 and 30 µM) in duplicate for 24 h. Non-treated cells were included as basal luciferase expression and tert-butylhydroquinone (TBHQ, 10 μM) as positive control in each plate. Luciferase expression was evaluated by using the Luciferase Assay System (Promega, E1483, Madrid, Spain) by luminescence in an Orion II microplate luminometer (Berthold, Germany). Luciferase activity increase was normalized to basal conditions considered as 1. CD values (concentration required to double the luciferase activity) were calculated from dose–response curves of luciferase fold induction vs. compound concentration, fitted by non-linear regression and data interpolated to value 2.
To evaluate the influence of both stereogenic centers in the NRF2 induction capacity of aza-CGP37157-LA hybrids, we used the AREc32 cell line model by analyzing luciferase expression upon treatment with NRF2 inducers. AREc32 cells were exposed to increasing concentrations of tested compounds 7a–d (0.3, […], 10 and 30 μM) during 24 h; thereafter, luciferase expression was evaluated by luminescent assay to calculate the corresponding CD value (concentration to double luciferase expression). […] TBHQ was included as a positive control, and CGP37157, S- and R-LA, rac-3a and (rac,R)-3b and precursors derivatives (R-6 and S-6) were included for comparative purposes. […] Once R-LA is reduced, it might activate the phase II antioxidant response by acting as pro-oxidant over key Cys residues at KEAP1 to generate the corresponding lipoyl-cystinyl disulphide.

[6] = system: mitochondrial lipoamide dehydrogenase; set-up: method as in PMID 8573188; conditions: cited from earlier work
BV2 microglial cells = test: Nitrite production reduction in LPS-stimulated BV2 microglial cells (Griess); assay type: cell-based, mouse; conditions: 24 h pretreatment 0.3, 3, 10, 30 μM, then compound + LPS 100 ng/mL 18 h, Griess
Protocol: BV2 microglial cells were seeded at 2 × 10^4 cells/well and treated with compounds at increasing concentrations during 24 h in complete culture media. Then, treatments were removed, and BV2 cells were co-incubated with compounds and LPS (100 ng/mL) (O127:B8, SigmaAldrich, L3129) for additional 18 h in culture media supplemented with 1% FBS. Each plate included non-treated cells as basal nitrite production. Thereafter, nitrite production was determined by using the modified Griess assay. In brief, samples (150 μL) were mixed with DAPSONE (75 μL) (SigmaAldrich, A74807) and NEDA (75 μL) (SigmaAldrich, 33461), and the mixture was incubated at room temperature for 5 min. Light absorption was measured at 550 nm in a microplate reader (SPECTROstar nano, BMG Labtech). Basal nitrite production was referred to as 100% of nitrite production, and all data were normalized to the basal condition. Concentration needed to reduce nitrite production to 50% was calculated from graphical representation of percentage of nitrite production vs. compound concentration, and data were fitted by non-linear regression and interpolated to 50%.
Chronic neuroinflammation is considered a key pathological event in the early stages of AD development. Among immune cells present at CNS, microglia is related to host defense and tissue repair. Nonetheless, chronic neuroinflammation induced by an adverse environment of protein aggregates and exacerbated OS induces a neurotoxic activity of microglia that, finally, leads to neuronal death. […] To this end, we selected the BV2 microglial cell model stimulated by lipopolysaccharide (LPS), a TLR4 agonist that activates the pro-inflammatory response. CGP37157, R- and S-LA; analogue compounds rac-3a and (rac,R)-3b; and precursor derivatives 6 were included with comparative and reference purposes. Microglial BV2 cells were treated with increasing concentrations of the corresponding compound (0.3, 3, 10 and 30 µM) for 24 h following a pre-incubation protocol. Thereafter, treatments were exchanged by a combination of the corresponding compound at desired concentration and LPS (100 ng/mL) during 18 h. At the end of this period, nitrite production was evaluated by the Griess method as an indirect measurement of iNOS enzyme expression and BV2 activation.

SH-SY5Y cell line = system: SH-SY5Y cell line; set-up: method as in PMID 21989390; conditions: at the concentrations tested; cited from earlier work

SMILES	CC50 at 24 h [1] [µM]	% Protection [2] [%]	% Survival [2] [%]	CD (concentration required to double the specific luciferase activity) (NRF2 [3]) [µM]	CD (concentration to double luciferase expression) (NRF2 [3]) [µM]	DPPH Scavenging at 100 µM, % [4]	DPPH Scavenging at 1mM, % [4]	reduction of nitrite production (primary glial cultures)	CD (concentration required to double the specific luciferase activity) (NRF2 [5]) [µM]	rate of conversion to dihydrolipoic acid relative to S-LA [6] [times]	IC50 (BV2 microglial cells) [µM]	neurotoxicity (SH-SY5Y cell line)
O=C1CN(CCOC(=O)CCCC[C@@H]2CCSS2)C(c2ccccc2Cl)c2cc(Cl)ccc2N1 (mixture of isomers) [(rac,R)-3b]	76.2 ± 4.8	59.3	72.9 ± 3.5	9.8 ± 1.6	9.8 ± 1.6	8.7 ± 5.1 [19] %	30.7 ± 3.9 [19] %	not active	–	–	–	–
O=C1CN(CCOC(=O)CCCCC2CCSS2)C(c2ccccc2Cl)c2cc(Cl)ccc2N1 (racemic) [rac-3a]	97.1 ± 2.3	52.1	69.0 ± 5.6	14.8 ± 1.6	14.8 ± 1.6	15.1 ± 3.4 [19] %	37.4 ± 3.8 [19] %	able to reduce nitrite production	–	–	–	–
O=C(O)CCCC[C@@H]1CCSS1 [(R) -Lipoic acid, (R)-Lipoic acid, reference compound]	–	–	–	–	–	–	–	–	> 600	28	> 30	–
O=C(O)CCCCC1CCSS1 (centres unmarked) [LA, lipoic acid]	–	–	–	–	–	–	–	–	–	–	–	non-neurotoxic

Reference: publication PMC8772772, “Enantioselective Synthesis and Pharmacological Evaluation of Aza-CGP37157–Lipoic Acid Hybrids for the Treatment of Alzheimer’s Disease” (Antioxidants, 2022)
